Results published in publication PMC11868579 (Nature Communications, 2024).
Values joined by “and” are separate entries in the source; they are usually repeats but may differ in a detail not shown here. Identical values can stand only once.

How the values were obtained:
[1] = tested on: cap-dependent translation; experiment: HeLa in vitro translation assay, cap-dependent reporter; format: biochemical, human; conditions: for fLuc (CAP) luminescence normalized to DMSO control, Average: HeLa lysate IVT, n=3
Method: HeLa In vitro translation (IVT) assay kits were purchased from Thermo Fisher(cat#88882). Bicistronic reporter mRNA was prepared from using a CMV/T7-renilla luciferase-IRES(FDMV)-firefly luciferase reporter vector as template DNA (supplied by Oxford Genetics Ltd.) using Message Machine T7 Ultra transcription Kit (Thermo Fisher, cat# AM1345) to generate in vitro transcribed mRNA. DNA template was removed with Turbo DNase from the transcription kit and the mRNA purified using RNeasy columns (Qiagen, cat#74204). RNA concentration was adjusted to 1 µg/µl using a Nanodrop. In vitro translation assays were then set up using a HeLa IVT kit according to the manufacturer’s protocol. The reaction was analysed using Dual Glo luciferase reporter assays (Promega, cat#E2920). Compounds were diluted from 100x DMSO stocks 1:10 in PBS and 2.5 µl transferred to 96 well PCR plates (Starlab, cat#I1402-9700). 22.5 µl IVT reaction mix (1.5 mL HeLa lysate, 60 µl RNAsin (Promega, cat#N2115), 300 µl accessory proteins, 600 µl reaction buffer, 200 µl nuclease free water and 30 µl […] mRNA) was added and incubated for 30 min at 30 °C (PCR alphacycler 4, PCRmax, Stone, Staffordshire, UK). The samples were placed on ice for 10 min, then 10 µl was removed and transferred to a white 96 well assay plate (Corning, cat#3917). […]

eIF4E–4E-BP1 interaction = eIF4E–4E-BP1 interaction (Homo sapiens, UniProt P06730); experiment: Electro-chemiluminescent binding assay, eIF4E:4E-BP1, HeLa cell lysates; format: biochemical; parameters: endogenous in cells; host or cells: HeLa cell lysates; conditions: for EC50: read-out: Inhibition of PPI in HeLa cells: eIF4E–4E-BP1 interaction, HeLa cell lysates, values in parentheses
Sequence of eIF4E–4E-BP1 interaction (P06730 2-217 limits assumed): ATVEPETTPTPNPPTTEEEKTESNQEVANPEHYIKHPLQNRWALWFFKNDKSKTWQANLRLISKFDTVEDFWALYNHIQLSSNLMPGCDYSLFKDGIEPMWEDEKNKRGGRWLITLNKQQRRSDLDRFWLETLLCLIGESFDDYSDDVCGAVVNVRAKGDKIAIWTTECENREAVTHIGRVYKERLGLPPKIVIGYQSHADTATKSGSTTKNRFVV
Method: This assay uses plates with carbon electrodes and electro-chemiluminescent labels (SULFO-TAGs) that are conjugated to detection antibodies. When an electric current is applied to the plate electrodes the SULFO-TAG labels will emit light that is measured to quantify analytes in the sample. […] The plates were washed with 3 ×150 µl/well MSD wash buffer (cat#R61AA-1; 0.2% Tween-20 in PBS), then blocked with 150 µl/well block buffer (MSD, cat# R93AA) for 1 h. […] The incubated plates were washed 4x in 150 µl in MSD wash buffer and were re-blocked by the addition of 25 μl of blocking buffer containing a 1:500 dilution of the secondary antibody and incubated for 1 hr at RT with rotational shaking. […] Plates were then washed again 4x in 150 µl in MSD wash buffer and 25 μl of a 1:50 dilution of Goat anti-rabbit Sulfo-Tag (MSD, Cat# R32AB-1) in MSD blocking buffer was added and the plates incubated for 1 h at RT with rotational shaking. After a final wash step, 150 μl Read Buffer T4X (MSD, Cat# R92-TC2) was added and the plate read using the MSD QuickPlex SQ 120 plate reader.

eIF4E-dTAG protein = biological target: T1, eIF4E-dTAG protein (Homo sapiens, UniProt P06730); experiment: CETSA of eIF4E-dTAG protein in H1299 C3-1 cells; format: cell-based; conditions: relative to control = 1.000, n=3
T1 construct: expressed in transfected cells
T1 sequence (P06730 with tags, fused parts or gaps): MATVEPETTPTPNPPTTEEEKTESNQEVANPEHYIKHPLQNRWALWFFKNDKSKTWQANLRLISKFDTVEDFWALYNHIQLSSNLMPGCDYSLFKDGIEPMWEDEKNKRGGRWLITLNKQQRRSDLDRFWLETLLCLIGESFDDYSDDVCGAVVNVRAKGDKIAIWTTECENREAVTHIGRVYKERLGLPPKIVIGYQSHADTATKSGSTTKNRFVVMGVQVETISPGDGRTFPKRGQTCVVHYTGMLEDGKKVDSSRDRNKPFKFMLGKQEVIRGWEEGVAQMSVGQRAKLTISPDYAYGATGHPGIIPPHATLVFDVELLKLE
Method: Cells (1.5 × 10^6 cells) were plated into 75 cm^2 flasks and allowed to attached overnight. After treatment with compound 4 or 5 for 6 h, they were harvested by trypsinisation and washed x2 in ice cold PBS. Cells were resuspended in 1 ml of cold PBS supplemented with protease and phosphatase inhibitors (Fisher Scientific, cat#1861281). Resuspended cells were divided into 100 μl aliquots and centrifuged at 300 x g for 3 min at 4 °C. Following centrifugation, 75μl of supernatant was removed and cells resuspended in the remaining volume. Cell suspensions were heated at 40.9, 43.7, 48.1, 52.9, 57.6, 62.4, 67.2, 71.9, 76.3 and 79.1 °C for 3 mins followed by cooling at 20 °C for 3 min[25]. Suspensions were freeze-thawed twice using liquid nitrogen. Soluble fractions were separated from cell debris by centrifuging at 20,000 x g for 30 min at 4 °C. Samples were then analysed by Western Blot. […]
Vinculin was used as a loading control. c Thermal stabilisation of eIF4E-dTAG protein by compound 4 or 5 binding. Quantification of immunoblots from H1299 C3-1cells incubated at 57.6 °C, following treatment with compound 4 (50, 25, 10, 5, 1, 0.5 μM) or compound 5 (50 μM) for 6 hr. Vinculin was […]
(1 picture or pasted object on this page, not shown here)

H1299 cells = experiment: CellTiter-Blue cell viability, H1299; format: cell-based, human; conditions: for Cell viability by cell titre blue assay, Average: H1299, 4 days, n=3
Method: Cell viability was measured by CellTiter-Blue® Cell Viability Assay. Cells were seeded in 96 well plates (Corning, cat#353072) and left overnight. Compounds were added at a range of concentrations and plates incubated at 37 °C for 96 hr. Cell titre blue reagent (Promega, Hampshire, UK, cat# G8081) was added (5 μl/well) and incubated for a further 2 h at 37 °C. Fluorescence (579Ex/584Em) was measured using a PHERAstar plate reader.

[2] = tested on: cap-dependent and cap-independent (IRES) protein synthesis; experiment: Bicistronic protein synthesis reporter in H1299 cells; format: cell-based, human; conditions: 24 hr; for protein synthesis reporter signal (cap-dependent luciferase / IRES luciferase), replicate values: H1299, normalisation not stated
Method: H1299 cells were transfected with a biscistronic vector using Lipofectamine 3000 transfection reagent (Fisher Scientific, cat#L3000008) for 24 hr and then treated with compounds for further 24 h. Luminescence was measured after 24 h of compound treatment using the Dual Glo luciferase reporter assays as above.

Structure (SMILES)	fLuc (CAP) luminescence normalized to DMSO control, Average ([1]; 1 μM)	fLuc (CAP) luminescence normalized to DMSO control, Average ([1]; 10 μM)	fLuc (CAP) luminescence normalized to DMSO control, Average ([1]; 100 μM)	EC50 (eIF4E–4E-BP1 interaction)	Thermal stabilisation of eIF4E-dTAG protein, Average (eIF4E-dTAG protein; 50 μM)	Cell viability by cell titre blue assay, Average (H1299 cells; 0.62 uM)	Cell viability by cell titre blue assay, Average (H1299 cells; 1.85 uM)	Cell viability by cell titre blue assay, Average (H1299 cells; 5.56 uM)	Cell viability by cell titre blue assay, Average (H1299 cells; 16.67 uM)	Cell viability by cell titre blue assay, Average (H1299 cells; 50 uM)	protein synthesis reporter signal (cap-dependent luciferase / IRES luciferase), replicate values ([2]; 10 μM)	protein synthesis reporter signal (cap-dependent luciferase / IRES luciferase), replicate values ([2]; 25 μM)	other results
CC[C@H](O[C@H](C)CO)c1ccc(-c2ccccc2F)cc1NCCO [Compound 4]	79.4%	29.0%	23.9%	> 100 µM	1.946	93.752	89.518	87.397	77.938	33.702	0.798 and 0.925 and 1.853 and 1.040 and 0.865 and 0.241	1.174 and 0.369 and 0.133 and 0.780 and 0.760 and 1.031	4E-BP1:eIF4E HeLa, luminescence ratio normalised to DMSO control (eIF4E–4E-BP1 interaction; HeLa lysates, 100 µM, 30 min, single experiments Expt 1, Expt 2): 88% and 92%; Thermal stabilisation of eIF4E-dTAG protein, Average (eIF4E-dTAG protein; 0.5 μM): 1.070; Thermal stabilisation of eIF4E-dTAG protein, Average (eIF4E-dTAG protein; 1 μM): 1.047; Thermal stabilisation of eIF4E-dTAG protein, Average (eIF4E-dTAG protein; 5 μM): 1.235; Thermal stabilisation of eIF4E-dTAG protein, Average (eIF4E-dTAG protein; 10 μM): 1.737; Thermal stabilisation of eIF4E-dTAG protein, Average (eIF4E-dTAG protein; 25 μM): 1.613; antiproliferative activity (H1299 cells; H1299, 96 hr): lacked on-target antiproliferative activity; inhibitory activity in dual reporter assay ([2]; H1299 cells): lacked inhibitory activity
CC[C@@H](O[C@H](C)CO)c1ccc(-c2ccccc2F)cc1NCCO [Compound 5]	115.8%	67.5%	84.6%	> 100 µM	1.004	92.413	89.367	90.001	80.933	48.944	0.991 and 1.031 and 2.154 and 1.191 and 1.096 and 0.294	1.003 and 1.037 and 1.187 and 0.927 and 1.046 and 2.532	effect on cap-dependent translation ([1]; 1, 10, 100 µM): no significant effect
